Results published in patent US7038033B2, “Nematode neuromuscular junction GABA receptors subunits” (University of Utah Research Foundation, priority 1998, dated 2006).

Key:
[1] = target: UNC-49B homomeric GABA receptor (Caenorhabditis elegans, UniProt G5EEY3); experiment: Two-electrode voltage clamp of Xenopus oocytes injected with UNC-49B.1 mRNA; format: cell-based, C. elegans; conditions: for response of oocytes to agonist: applied at 1 mM or 10 mM
Experimental: (§1) Oocytes were removed from Xenopus laevis frogs anesthetized by immersion in 0.2% tricaine for 15-30 minutes. Harvested ovarian lobes were defolliculated by incubation in 2 mg/ml of collagenase (Type IA, Sigma) for 2 hours at room temperature on an orbital shaker in calcium-free ND-96 solution containing in mM: 96 NaCl, 2 KCl, 1 MgCl2, and 5 HEPES (pH=7.6). The oocytes were rinsed 5-6 times with a Barth's solution that contained (in mM): 88 NaCl, 1 KCl, 0.41 CaCl2, 0.33 Ca(NO3)2, 1 MgSO4, 2.4 NaHCO3 and 10 HEPES (pH=7.4), and selected stage V-VI oocytes were stored at 18C in Barth's solution supplemented with 1 mM Na-Pyruvate, 0.01 mg/ml gentamycin and an antibiotic-antimycotic solution containing 100 units/ml of penicillin, 100 μg/ml streptomycin and 0.25 μg/ml of Amphotericin B (Gibco BRL).
(§2) Oocytes were injected with cRNA (prepared using the mMessage mMachine kit, Ambion) into the cytoplasm 24 hours later. Glass capillary tubes (World Precision Instruments) were pulled to a fine tip on a vertical micropipette puller (David Kopf) and broken back to an outside diameter of 21 μm. RNA stocks were diluted to a final concentration of 0.75 μg/μl and injected into the oocytes (32 nl) with a microinjector (World Precision Instruments).
(§3) Electrophysiological recordings were performed 3-7 days following injection and were carried out at room temperature in a control Ringers solution containing in mM: 115 NaCl, 2.5 KCl, 1.0 BaCL2, and 10 HEPES (pH=7.4). Two electrode voltage clamp recordings were obtained with a Geneclamp amplifier (Axon Instruments) using […] KCl-filled microelectrodes (1-5 M). Recordings were carried out at a holding potential of −60 mV. Concentration-effect data were fit to the logistic equation: I=Imax/{1+(EC50/[agonist])^nH}, where Imax is the maximal current, [agonist] is the concentration, EC50 is the concentration of agonist resulting in half maximal activation and nH is an empirical parameter describing the steepness of fit and having the same meaning as the Hill coefficient. NFIT (Island Products) was used for non-linear curve fitting. Data are presented as the mean S.E.M.; n is the number of oocytes tested. All combinations of subunits were tested in parallel in at least two independent experiments (at least 4 oocytes for each combination of mRNAs per experiment). The effect of incorporating the UNC-49C subunit was consistent from one experiment to another. Single channel recordings were performed as described in except that 1 mM GABA was applied continuously. Single channel conductance was determined by fitting Gaussian curves to all points histograms.

UNC-49C = experiment: Two-electrode voltage clamp of Xenopus oocytes injected with UNC-49C RNA; format: cell-based, C. elegans; conditions: any concentration
Experimental: as §1, §2, §3

[2] = target: UNC-49B/C heteromeric GABA receptor (Caenorhabditis elegans, UniProt G5EE10+G5EEY3); experiment: Two-electrode voltage clamp of Xenopus oocytes injected with equal amounts of UNC-49B and UNC-49C RNA; format: cell-based; conditions: Xenopus oocytes co-expressing UNC-49B and UNC-49C
Chain of UNC-49B/C heteromeric GABA receptor (G5EE10 entry or part of it): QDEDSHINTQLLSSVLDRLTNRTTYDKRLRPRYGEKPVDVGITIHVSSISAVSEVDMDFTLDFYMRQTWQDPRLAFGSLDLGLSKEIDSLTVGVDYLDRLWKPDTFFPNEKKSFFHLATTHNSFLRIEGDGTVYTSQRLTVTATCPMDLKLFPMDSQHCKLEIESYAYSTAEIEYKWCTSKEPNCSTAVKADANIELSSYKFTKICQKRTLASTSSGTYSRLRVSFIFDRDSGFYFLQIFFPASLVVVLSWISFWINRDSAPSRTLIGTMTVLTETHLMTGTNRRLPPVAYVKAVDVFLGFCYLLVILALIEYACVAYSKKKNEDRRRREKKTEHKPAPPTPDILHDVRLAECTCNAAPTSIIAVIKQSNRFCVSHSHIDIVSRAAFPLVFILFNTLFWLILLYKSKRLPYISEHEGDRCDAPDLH
Chain of UNC-49B/C heteromeric GABA receptor (G5EEY3 entry or part of it): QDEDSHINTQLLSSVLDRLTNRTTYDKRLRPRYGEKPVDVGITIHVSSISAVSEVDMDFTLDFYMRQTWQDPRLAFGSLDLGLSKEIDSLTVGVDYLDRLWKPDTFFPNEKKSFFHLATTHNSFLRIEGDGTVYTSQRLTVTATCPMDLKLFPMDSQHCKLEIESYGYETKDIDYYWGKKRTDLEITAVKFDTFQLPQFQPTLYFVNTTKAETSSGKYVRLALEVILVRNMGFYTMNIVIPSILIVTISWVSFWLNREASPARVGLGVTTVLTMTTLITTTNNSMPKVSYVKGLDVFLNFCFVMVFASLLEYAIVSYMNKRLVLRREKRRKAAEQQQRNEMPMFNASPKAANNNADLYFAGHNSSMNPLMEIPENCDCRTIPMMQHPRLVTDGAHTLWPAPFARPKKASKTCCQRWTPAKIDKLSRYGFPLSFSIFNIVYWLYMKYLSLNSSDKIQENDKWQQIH
Experimental: as §1
Oocytes were injected with cRNA (prepared using the mMessage mMachine kit, Ambion) into the cytoplasm 24 hours later. […]
Electrophysiological recordings were performed 3-7 days following injection and were carried out at room temperature in a control Ringers solution containing in mM: 115 NaCl, 2.5 KCl, 1.0 BaCL2, and 10 HEPES (pH=7.4). […] Single channel conductance was determined by fitting Gaussian curves to all points histograms.

Chain of UNC-49B homomeric GABA receptor (G5EEY3 entry or part of it): as above

Row | Compound | response of oocytes to agonist ([1]; UNC-49B-expressing oocytes) | response of oocytes to agonist (UNC-49C) | EC50 [2] [µM] | Hill coefficient [2] | current when exposed to agonist ([1]; UNC-49B.1-injected Xenopus oocytes) | EC50 ([1]; UNC-49B.1-injected Xenopus oocytes, holding potential -60 mV, representative experiment, read-out: GABA concentration required to produce half-maximal channel activity (EC50)) [µM] | Hill coefficient ([1]; UNC-49B.1-injected Xenopus oocytes, representative experiment) | currents produced by agonist ([1]; UNC-49B-expressing oocytes, 10 mM, n=4)
1 | NCC(=O)O [glycine] | did not respond | equally unresponsive |  |  |  |  |  | 
2 | NCCCC(=O)O [GABA, gamma-aminobutyric acid] |  | failed to respond | 108 | 1.33 | robust, desensitizing, dose-dependent current | 43.7 | 2.94 | 
3 | NCCC(=O)O [β-alanine] |  | equally unresponsive |  |  |  |  |  | only slightly greater than baseline noise
4 | N[C@@H](CCC(=O)O)C(=O)O [glutamate] | did not respond | equally unresponsive |  |  |  |  |  | 
